Measurements reported in publication PMC6315057, “Industrial scale high-throughput screening delivers multiple fast acting macrofilaricides” (Nature Communications, 2019).
In brackets after ≈: the same amount, converted by molar mass. Read-outs that look alike come from different tables or passages of the source.

What was measured:
[1] = test system: Wolbachia within Brugia malayi Mf; experiment: B. malayi microfilarial (Mf) in vitro anti-Wolbachia assay (wsp:gst qPCR); assay type: cell-based; conditions: for EC50: B. malayi Mf, 6 days, read-out: Mf EC50
Description: The Mf were obtained by peritoneal lavage, using a catheter, of gerbils (Meriones unguiculatus) harbouring a patent infection of B. malayi. Mf were purified using a PD-10 desalting column (Fisher), centrifuged (311 RCF for 5 min at room temperature) before the addition of 8000 Mf/well of a 96-well plate (100 µl per well) in complete media consisting of RPMI supplemented with 10% FBS, 1% penicillin streptomycin and 1% amphotericin B. […] Each plate contained doxycycline (5 µM) and DMSO controls. After incubation at 37 °C for 6 days in 5% CO2, visual assessment of Mf motility was performed and scored from 0 to 4 per well (where 0 = no movement and 4 = highly motile). DNA extraction per sample was performed using the QIAmp DNA Mini Kit before quantitative PCR was performed to obtain the ratio of Wolbachia Surface Protein gene copy number (wsp) to Glutathione S-Transferase gene copy number (gst)[36]. The DNA was amplified using the primers as indicated in Supplementary Table 6.
The wsp:gst ratio data allowed for normalisation of the Wolbachia level to the Mf biomass for each well. The change in wsp:gst for each compound compared to the DMSO control was calculated before normalisation to the onboard doxycycline control to allow for inter-assay comparison.

[2] = test system: Wolbachia in C6/36 (wAlbB) cells; experiment: Confirmatory re-assessment in the insect cell screen (cell assay EC50); assay type: cell-based, Wolbachia pipientis wAlbB (in Aedes albopictus C6/36 cells); conditions: insect cell screen, re-sourced or re-synthesised samples
Source text: To further validate the hit molecules from these 9 clusters, samples were sourced either from the AstraZeneca compound inventory or through re-synthesis. All 18 samples were characterised by nuclear magnetic resonance (NMR) and mass spectroscopy to confirm their chemical structures and by HPLC/LCMS to establish their purity (Supplementary Table 5 and Supplementary Data 1). These samples were also subject to confirmatory re-assessment in both the insect cell screen and Mf assays for anti-Wolbachia potency alongside confirmation of DMPK properties (LogD7.4, aqueous solubility in pH 7.4 PBS, human microsomal turnover, rat hepatocyte turnover and human plasma protein binding) (Fig. 4, Supplementary Figure 1 and Supplementary Table 4).
(§1) On day 0, a single cryovial was recovered and the cells washed before being transferred to a T225 cm^2 flask. After a 7-day recovery Wolbachia infection level (quality control (QC)) was checked by SYTO®11 DNA staining of both the host cell nuclei and intracellular Wolbachia. The end-point read out from the Operetta® high content imaging system (Perkin Elmer) was the percentage of cells infected with Wolbachia. This was obtained from cytoplasm texture analysis by the associated Harmony® software. Cells with a >50% of the population infected with Wolbachia were classed as having a good Wolbachia level and therefore used for screening through addition of 2000 cells per well into assay ready 384-well plates containing the test compounds. […] Each plate included on-board controls; vehicle/DMSO (total/maximum Wolbachia signal) or doxycycline 5 µM (null/minimum Wolbachia signal), resulting in single shot screening of 352 compounds per plate for the primary screen. […] QC plates were also created including full columns of the following controls; DMSO (total/max), 5 μM doxycycline (null/min), as well as 50 nM doxycycline (reference/medium Wolbachia signal). Daily batches contained ~150 compound plates in addition to the QC plates. Each compound plate was foil sealed before incubation for 7 days at 26 °C, 95% humidity and atmospheric air.

[3] = test system: Wolbachia in C6/36 (wAlbB) cells; experiment: Secondary concentration response HTS (IC50) anti-Wolbachia screen in C6/36 (wAlbB) insect cells; assay type: cell-based, Wolbachia pipientis wAlbB (in Aedes albopictus C6/36 cells); conditions: 7-day incubation, 10-point concentration range
Description: Initially C6/36 (wAlbB) cells (insect cells stably infected with the Wolbachia target) from a single cryopreserved batch were recovered over 7 days prior to plating into 384-well assay ready plates (containing the test compounds), using a semi-automated process allowing for daily batches of ~150 plates, set up 4 days per week for 8 weeks. After a 7-day incubation period with the test compounds the plates were moved into the second fully automated stage (using the Agilent Technologies BioCel system) involving formaldehyde fixation, DNA staining of the insect cell nuclei (Hoechst) for toxicity analysis and antibody staining specific to the intracellular Wolbachia (wBmPAL primary antibody and far-red secondary antibody). In the final stage the fixed and stained plates from stage 2 were processed through automated data acquisition (High Res Biosolutions system, incorporating EnVision™ and acumen® plate readers). This industry standardised assay was then used to screen AstraZeneca’s full library of 1.3 million compounds within 10 weeks. In total this HTS included 30 × 3 week assays covering 3835 × 384-well plates. This primary HTS generated 20,255 hits defined as >80% reduction in Wolbachia with <60% toxicity to the host insect cell (eliminating false positives). This represents an overall hit rate of 1.56%. These compounds are depicted in chemical space in Fig. 2 (black points)[21].
The mosquito (Aedes albopictus) derived cell line C6/36 (ATCC® CRL 1660), stably infected with Wolbachia pipientis wAlbB (C6/36(wAlbB)), was maintained in Leibovitz L15 medium containing 2 mM L-glutamine, 1% nonessential amino acids, 2% tryptose phosphate broth and 20% heat-inactivated foetal bovine serum (FBS) at 26 °C[18]. This screen exclusively used cells from the large-scale cryopreserved batch produced as part of this campaign by culturing the cells at scale before cryopreservation (90% FBS and 10% DMSO). This produced a cell bank of 190 × 1 ml cryovials containing 3 × 10^7 cells per vial.
as §1
After 7 days of drug incubation, the plates were loaded into the fully automated BioCel system which performed the following additions; fixation and DNA staining (1.8% formaldehyde + 0.6 µg/ml Hoechst 33342, 20 min), permeabilisation (80 μl of PBS + 0.25% Triton-X 100, 30 min), blocking (PBS + 6% BSA, 40 min), overnight incubation in the Wolbachia-specific anti-wBmPAL primary antibody[34] […]

[4] = test system: THP-1 cells; experiment: Mammalian cell viability counter-screen (CellTiter-Blue); assay type: cell-based, human; conditions: 48 h, read-out: HTS IC50 mammalian toxicity
Description: The human monocytic THP-1 cell line (ATCC® TIB-202) used for mammalian cytotoxicity evaluation was routinely cultured in roller bottles. Growth media consisted of RPMI 1640 supplemented with 10% FBS and 2 mM L-glutamine. Cells were maintained at 37 °C with 95% humidity in 5% CO2 in a shaking incubator.
All compounds selected for secondary IC50 screen were tested in parallel for mammalian cell viability using the CellTiter-Blue® Cell Viability Assay. THP1 cells were removed from culture and plated at 1 × 10^4 cells/well (40 µl) into 384-well assay ready plates and incubated at 37 °C, 5% CO2 for 48 h at 95% humidity. After the addition of CellTiter-Blue Viability reagent (8 µl of a 1:6 dilution) the assay plates were incubated for a further 2 h before fluorescence detected using a PerkinElmer EnVision™ plate reader.

[5] = Human plasma protein binding; assay type: in vitro ADME; conditions: for fraction unbound: plasma
Source text: (§2) The DMPK data used for triaging compounds, including LogD7.4, aqueous solubility, plasma protein binding, microsome and hepatocyte clearance measurements, were generated using the standard AstraZeneca UK high-throughput platform[37],[38].

[6] = LogD7.4; assay type: physicochemical; conditions: pH 7.4
Source text: as §2

[7] = Rat hepatocyte clearance; assay type: in vitro ADME
Source text: as §2

[8] = Human microsome clearance; assay type: in vitro ADME; conditions: for microsomal CLint: human microsomes
Source text: as §2

[9] = Aqueous solubility in pH 7.4 PBS; assay type: physicochemical; conditions: for solubility: PBS pH 7.4, aqueous buffer, pH 7.4 PBS, read-out: Aqueous solubility in pH7.4 PBS
Source text: as §2

Row | SMILES | EC50 ([1]; Brugia malayi, 144 h) [nM] | fraction unbound [5] | logD [6] | Rat hepatocytes CLint [7] [µl/min/1x106 cells] | microsomal CLint ([8]; human) [µL/min/mg] | solubility [9] [µM] | Human microsomal stability (in words) [8] | Solubility (in words) [9] | Metabolic stability (in words) ([8]; in vitro, system not given) | EC50 [1] [nM] | Human plasma protein binding [5] [%] | LogD 7.4 [6] | Human microsome CLint ([8]; human, microsomes) [µL/min/mg] | EC50 ([2]; Wolbachia, C6/36) [nM] | IC50 ([3]; Wolbachia, 168 h) [nM] | IC50 ([4]; Homo sapiens) [nM] | Mf in vitro potency (in words) [1] | EC50 [2] [nM] | IC50 [3] [nM] | IC50 [4] [nM]
1 | Cc1nccc(N2CCC(C(=O)N3CCCN(S(=O)(=O)c4ccc(Br)cc4)CC3)CC2)n1 [1B, (4-((4-bromophenyl)sulfonyl)-1,4-diazepan-1-yl)(1-(2-methylpyrimidin-4-yl)piperidin-4-yl)methanone] | ~296 | 0.23 | 2.7 | 24.8 | > 300 | 217 (≈ 113 µg/mL) |  |  |  |  |  |  |  | 268 | 111 | > 30600 |  |  |  | 
2 | CNC(=O)c1csc(C2CCCN2Cc2ccc(C)c(F)c2)n1 (stereo not shown) [4B, 2-(1-(3-fluoro-4-methylbenzyl)pyrrolidin-2-yl)-N-methylthiazole-4-carboxamide] | 1760 | 0.05 | 3.7 | > 300 | 83.4 | 397 (≈ 132 µg/mL) |  |  |  |  |  |  |  | 66 | 228 | > 30600 |  |  |  | 
3 | O=C1NCCCc2nc(N3CCN(c4ccccc4F)CC3)sc21 [6A, 2-(4-(2-fluorophenyl)piperazin-1-yl)-5,6,7,8-tetrahydro-4H-thiazolo[5,4-c]azepin-4-one] | 447 | 0.088 | 2.9 | 55.1 | 11.3 | 26 (≈ 9.01 µg/mL) | very good | acceptable |  |  |  |  |  | 2560 | 684 | > 30600 | lower potency than representatives 4A or 5A |  |  | 
4 | COc1ccc(C(=O)Nc2ccc(CNC(=O)c3ccnn3C)cc2C)cn1 [7A, 6-methoxy-N-(2-methyl-4-((1-methyl-1H-pyrazole-5-carboxamido)methyl)phenyl)nicotinamide] | ~1160 | 0.003 | 2 | < 1 | < 3 | 100 (≈ 37.9 µg/mL) |  | good | high |  |  |  |  | 1140 | 1270 | 23200 |  |  |  | 

Continued, in another order:

Row | EC50 ([1]; Brugia malayi, 144 h) [nM] | fraction unbound [5] | logD [6] | Rat hepatocytes CLint [7] [µl/min/1x106 cells] | microsomal CLint ([8]; human) [µL/min/mg] | solubility [9] [µM] | Human microsomal stability (in words) [8] | Solubility (in words) [9] | Metabolic stability (in words) ([8]; in vitro, system not given) | EC50 [1] [nM] | Human plasma protein binding [5] [%] | LogD 7.4 [6] | Human microsome CLint ([8]; human, microsomes) [µL/min/mg] | SMILES | EC50 ([2]; Wolbachia, C6/36) [nM] | IC50 ([3]; Wolbachia, 168 h) [nM] | IC50 ([4]; Homo sapiens) [nM] | Mf in vitro potency (in words) [1] | EC50 [2] [nM] | IC50 [3] [nM] | IC50 [4] [nM]
5 | > 5000 | 0.12 | 2.5 | 39.5 | 8.5 | 172 (≈ 50.8 µg/mL) |  |  |  |  |  |  |  | O=C(Cc1cccc(F)c1)Nc1[nH]ncc1-c1ccccc1 [2B, 2-(3-fluorophenyl)-N-(4-phenyl-1H-pyrazol-5-yl)acetamide] | 11300 | 4370 | > 30600 |  |  |  | 
6 | ~223 | 0.2 | 2.5 | 218.6 | 35.5 | > 1000 |  |  |  |  |  |  |  | CN(CC1CCCC(=O)N1)c1cc(OCc2ccccc2)nc(-c2nccn2C)n1 (stereo not shown) [3B, 6-(((6-(benzyloxy)-2-(1-methyl-1H-imidazol-2-yl)pyrimidin-4-yl)(methyl)amino)methyl)piperidin-2-one] | 645 | 510 | > 30600 |  |  |  | 
7 | 294 | 0.011 | 4.6 | 71.1 | 101 | 22 (≈ 9.07 µg/mL) |  |  |  |  |  |  |  | Cc1nc(C(=O)NC(C)c2cccc3ccccc23)c(NC(=O)Cc2ccccc2)[nH]1 (stereo not shown) [5B, 2-methyl-N-(1-(naphthalen-1-yl)ethyl)-5-(2-phenylacetamido)-1H-imidazole-4-carboxamide] | 68 | 158 | > 30600 |  |  |  | 
8 | > 5000 | 0.4 | 1.6 | 22.9 | 3.5 | 756 (≈ 233 µg/mL) |  |  |  |  |  |  |  | Cc1csc(CN(C)c2nc3c(s2)C(=O)NCCC3)n1 [6B, 2-(methyl((4-methylthiazol-2-yl)methyl)amino)-5,6,7,8-tetrahydro-4H-thiazolo[5,4-c]azepin-4-one] | 897 | 594 | > 30600 |  |  |  | 
9 |  |  |  | 25.0 |  |  |  |  |  | 2220 | 99.5 | 2.3 | 40.7 | COCc1ccc(C(=O)Nc2ccc(CNC(=O)c3ccnn3C)cc2C)nc1 [7B, 5-(methoxymethyl)-N-(2-methyl-4-((1-methyl-1H-pyrazole-5-carboxamido)methyl)phenyl) picolinamide] |  |  |  |  | 3070 | 2480 | > 30600
10 | 2700 | 0.05 | 2.7 | > 300 | > 300 | 16 (≈ 5.84 µg/mL) |  |  |  |  |  |  |  | CN(Cc1cccc(Cl)c1)S(=O)(=O)c1ccc2c(c1)C(=O)NCC2 [8A, N-(3-chlorobenzyl)-N-methyl-1-oxo-1,2,3,4-tetrahydroisoquinoline-7-sulfonamide] | 515 | 486 | > 30600 |  |  |  | 
